Measurements from patent US11981658B2, “Substituted aminopyridine compounds as EGFR inhibitors” (YUHAN CORPORATION, priority 2021, dated 2024).
Like-named read-outs stand apart in the source and are kept apart here.

Tests used:
EGFR Del19/T790M/C797S = EGFR Del19/T790M/C797S (Homo sapiens, UniProt P00533, C797S/DEL746-750/T790M); assay: Biochemical EGFR kinase inhibition assay (Lance Ultra TR-FRET), triple mutant del19/T790M/C797S
Procedure, shortened: (§1)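 Kinase activity is measured by TR-FRET phosphopeptide detection. Compounds span 0.003 μM to 10 μM; the 1 h reaction at room temperature is quenched with EDTA, then labelled antibody (2 nM) is incubated 60 min before reading.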

EGFR L858R/T790M/C797S = EGFR L858R/T790M/C797S (Homo sapiens, UniProt P00533, C797S/L858R/T790M); assay: Biochemical EGFR kinase inhibition assay (Lance Ultra TR-FRET), triple mutant L858R/T790M/C797S
Procedure, shortened: as §1

EGFR Del19/C797S = EGFR Del19/C797S (Homo sapiens, UniProt P00533, C797S/DEL746-750); assay: Biochemical EGFR kinase inhibition assay (Lance Ultra TR-FRET), double mutant del19/C797S
Procedure, shortened: as §1

EGFR L858R/C797S = EGFR L858R/C797S (Homo sapiens, UniProt P00533, C797S/L858R); assay: Biochemical EGFR kinase inhibition assay (Lance Ultra TR-FRET), double mutant L858R/C797S
Procedure, shortened: as §1

EGFR wildtype (WT) = EGFR wildtype (WT) (Homo sapiens, UniProt P00533); assay: Biochemical EGFR kinase inhibition assay (Lance Ultra TR-FRET), wildtype
Procedure, shortened: as §1

[1] = IC50 Del19/T790M/C797S (nM), 100 μM ATP
[2] = Km ATP, read-out: IC50 Del19/T790M/C797S (nM), Km ATP
[3] = IC50 L858R/T790M/C797S (nM), 100 μM ATP
[4] = Km ATP, read-out: IC50 L858R/T790M/C797S (nM), Km ATP
[5] = IC50 Del19/C797S (nM), 100 μM ATP
[6] = Km ATP, read-out: IC50 Del19/C797S (nM), Km ATP
[7] = IC50 L858R/C797S (nM), 100 μM ATP
[8] = Km ATP, read-out: IC50 L858R/C797S (nM), Km ATP
[9] = Km ATP, read-out: IC50 WT (nM), Km ATP

EGFR Del19/T790M/C797S, sequence (P00533 with tags, fused parts or gaps DEL746-750/T790M/C797S): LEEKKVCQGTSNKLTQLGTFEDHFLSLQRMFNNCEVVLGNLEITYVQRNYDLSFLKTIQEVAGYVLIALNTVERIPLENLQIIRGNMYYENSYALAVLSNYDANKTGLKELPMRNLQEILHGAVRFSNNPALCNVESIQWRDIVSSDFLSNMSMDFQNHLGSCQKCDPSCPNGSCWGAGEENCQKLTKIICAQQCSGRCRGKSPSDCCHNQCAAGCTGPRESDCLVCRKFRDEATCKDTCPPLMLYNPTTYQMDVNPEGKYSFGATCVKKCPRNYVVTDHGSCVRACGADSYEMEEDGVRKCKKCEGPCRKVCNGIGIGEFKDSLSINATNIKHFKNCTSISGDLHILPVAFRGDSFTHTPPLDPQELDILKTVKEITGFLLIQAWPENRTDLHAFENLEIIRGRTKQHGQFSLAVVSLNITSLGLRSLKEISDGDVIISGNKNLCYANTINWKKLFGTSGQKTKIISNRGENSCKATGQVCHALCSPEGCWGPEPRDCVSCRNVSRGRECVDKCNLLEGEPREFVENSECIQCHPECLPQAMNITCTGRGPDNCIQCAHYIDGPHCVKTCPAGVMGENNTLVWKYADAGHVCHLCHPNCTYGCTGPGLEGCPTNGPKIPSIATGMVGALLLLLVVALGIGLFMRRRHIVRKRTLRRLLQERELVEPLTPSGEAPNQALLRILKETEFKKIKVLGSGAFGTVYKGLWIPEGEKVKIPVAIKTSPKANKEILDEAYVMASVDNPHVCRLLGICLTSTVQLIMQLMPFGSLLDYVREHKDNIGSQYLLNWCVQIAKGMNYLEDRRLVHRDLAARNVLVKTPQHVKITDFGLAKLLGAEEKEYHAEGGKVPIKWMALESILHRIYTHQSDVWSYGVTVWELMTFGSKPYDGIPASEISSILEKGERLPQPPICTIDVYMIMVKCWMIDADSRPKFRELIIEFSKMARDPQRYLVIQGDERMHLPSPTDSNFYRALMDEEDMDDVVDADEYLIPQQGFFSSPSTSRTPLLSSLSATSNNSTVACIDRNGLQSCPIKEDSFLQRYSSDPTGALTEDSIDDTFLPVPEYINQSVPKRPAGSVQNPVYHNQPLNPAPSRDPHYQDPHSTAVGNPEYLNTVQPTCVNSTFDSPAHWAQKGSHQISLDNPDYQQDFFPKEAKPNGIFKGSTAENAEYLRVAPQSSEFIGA
EGFR wildtype (WT), sequence (P00533 25-1210): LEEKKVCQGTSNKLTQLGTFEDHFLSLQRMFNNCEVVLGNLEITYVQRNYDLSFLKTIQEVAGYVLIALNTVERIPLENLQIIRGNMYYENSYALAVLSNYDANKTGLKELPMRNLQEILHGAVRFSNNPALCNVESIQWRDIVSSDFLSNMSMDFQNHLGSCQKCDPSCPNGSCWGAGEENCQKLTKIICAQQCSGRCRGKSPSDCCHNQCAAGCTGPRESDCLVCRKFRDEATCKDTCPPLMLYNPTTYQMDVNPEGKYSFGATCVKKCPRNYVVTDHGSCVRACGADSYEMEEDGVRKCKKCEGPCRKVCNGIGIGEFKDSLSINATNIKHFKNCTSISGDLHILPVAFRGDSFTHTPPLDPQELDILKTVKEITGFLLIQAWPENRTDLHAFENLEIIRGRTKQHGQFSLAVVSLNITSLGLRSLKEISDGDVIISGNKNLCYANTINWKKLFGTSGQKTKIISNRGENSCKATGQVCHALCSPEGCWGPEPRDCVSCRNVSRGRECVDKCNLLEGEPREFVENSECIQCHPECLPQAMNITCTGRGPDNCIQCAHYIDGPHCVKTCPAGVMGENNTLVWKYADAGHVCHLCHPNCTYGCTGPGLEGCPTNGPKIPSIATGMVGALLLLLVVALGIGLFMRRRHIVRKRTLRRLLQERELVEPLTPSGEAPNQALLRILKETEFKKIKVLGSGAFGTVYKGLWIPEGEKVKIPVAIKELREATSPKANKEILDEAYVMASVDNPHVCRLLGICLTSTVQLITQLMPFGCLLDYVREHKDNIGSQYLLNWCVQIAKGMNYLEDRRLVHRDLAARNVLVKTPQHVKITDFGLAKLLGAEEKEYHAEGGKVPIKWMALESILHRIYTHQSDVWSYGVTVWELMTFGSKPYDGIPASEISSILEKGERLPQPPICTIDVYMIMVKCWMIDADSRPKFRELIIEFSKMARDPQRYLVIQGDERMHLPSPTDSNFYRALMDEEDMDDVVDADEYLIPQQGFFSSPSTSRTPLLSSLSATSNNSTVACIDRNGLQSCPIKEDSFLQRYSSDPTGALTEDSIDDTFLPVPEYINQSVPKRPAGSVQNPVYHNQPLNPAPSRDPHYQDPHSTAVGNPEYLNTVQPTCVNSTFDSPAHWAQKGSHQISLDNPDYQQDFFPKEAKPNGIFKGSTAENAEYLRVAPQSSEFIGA
EGFR L858R/C797S, sequence (P00533 25-1210 C797S/L858R): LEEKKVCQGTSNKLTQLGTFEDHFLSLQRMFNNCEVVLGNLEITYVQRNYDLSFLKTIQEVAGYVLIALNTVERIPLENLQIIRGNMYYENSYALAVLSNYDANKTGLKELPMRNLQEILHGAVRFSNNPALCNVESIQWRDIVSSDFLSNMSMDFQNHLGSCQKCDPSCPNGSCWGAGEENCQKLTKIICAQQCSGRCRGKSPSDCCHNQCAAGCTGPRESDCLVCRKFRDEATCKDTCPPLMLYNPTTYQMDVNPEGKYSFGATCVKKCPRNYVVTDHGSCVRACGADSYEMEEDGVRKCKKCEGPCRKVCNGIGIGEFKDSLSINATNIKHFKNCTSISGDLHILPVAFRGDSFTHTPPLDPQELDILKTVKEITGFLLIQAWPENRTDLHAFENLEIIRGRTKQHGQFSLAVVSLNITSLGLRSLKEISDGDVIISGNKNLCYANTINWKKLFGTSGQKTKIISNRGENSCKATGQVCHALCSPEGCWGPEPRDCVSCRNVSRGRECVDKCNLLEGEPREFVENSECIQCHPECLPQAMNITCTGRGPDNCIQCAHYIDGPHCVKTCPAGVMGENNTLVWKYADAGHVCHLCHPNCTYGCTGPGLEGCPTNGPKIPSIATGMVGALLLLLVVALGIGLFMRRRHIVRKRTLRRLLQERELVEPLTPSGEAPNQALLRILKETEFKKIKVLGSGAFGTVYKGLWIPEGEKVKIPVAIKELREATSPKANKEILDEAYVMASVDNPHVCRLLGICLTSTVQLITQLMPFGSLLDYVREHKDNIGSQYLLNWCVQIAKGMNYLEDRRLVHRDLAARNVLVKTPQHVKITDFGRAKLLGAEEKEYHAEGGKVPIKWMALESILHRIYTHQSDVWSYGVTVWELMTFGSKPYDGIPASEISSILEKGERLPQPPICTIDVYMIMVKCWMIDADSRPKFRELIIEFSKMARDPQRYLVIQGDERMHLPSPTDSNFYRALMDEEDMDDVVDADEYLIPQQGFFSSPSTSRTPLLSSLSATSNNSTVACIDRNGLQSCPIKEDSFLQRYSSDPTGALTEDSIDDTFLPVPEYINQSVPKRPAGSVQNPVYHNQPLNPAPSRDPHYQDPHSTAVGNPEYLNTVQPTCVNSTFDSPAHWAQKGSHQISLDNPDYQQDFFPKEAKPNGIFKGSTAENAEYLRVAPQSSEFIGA
EGFR L858R/T790M/C797S, sequence (P00533 25-1210 T790M/C797S/L858R): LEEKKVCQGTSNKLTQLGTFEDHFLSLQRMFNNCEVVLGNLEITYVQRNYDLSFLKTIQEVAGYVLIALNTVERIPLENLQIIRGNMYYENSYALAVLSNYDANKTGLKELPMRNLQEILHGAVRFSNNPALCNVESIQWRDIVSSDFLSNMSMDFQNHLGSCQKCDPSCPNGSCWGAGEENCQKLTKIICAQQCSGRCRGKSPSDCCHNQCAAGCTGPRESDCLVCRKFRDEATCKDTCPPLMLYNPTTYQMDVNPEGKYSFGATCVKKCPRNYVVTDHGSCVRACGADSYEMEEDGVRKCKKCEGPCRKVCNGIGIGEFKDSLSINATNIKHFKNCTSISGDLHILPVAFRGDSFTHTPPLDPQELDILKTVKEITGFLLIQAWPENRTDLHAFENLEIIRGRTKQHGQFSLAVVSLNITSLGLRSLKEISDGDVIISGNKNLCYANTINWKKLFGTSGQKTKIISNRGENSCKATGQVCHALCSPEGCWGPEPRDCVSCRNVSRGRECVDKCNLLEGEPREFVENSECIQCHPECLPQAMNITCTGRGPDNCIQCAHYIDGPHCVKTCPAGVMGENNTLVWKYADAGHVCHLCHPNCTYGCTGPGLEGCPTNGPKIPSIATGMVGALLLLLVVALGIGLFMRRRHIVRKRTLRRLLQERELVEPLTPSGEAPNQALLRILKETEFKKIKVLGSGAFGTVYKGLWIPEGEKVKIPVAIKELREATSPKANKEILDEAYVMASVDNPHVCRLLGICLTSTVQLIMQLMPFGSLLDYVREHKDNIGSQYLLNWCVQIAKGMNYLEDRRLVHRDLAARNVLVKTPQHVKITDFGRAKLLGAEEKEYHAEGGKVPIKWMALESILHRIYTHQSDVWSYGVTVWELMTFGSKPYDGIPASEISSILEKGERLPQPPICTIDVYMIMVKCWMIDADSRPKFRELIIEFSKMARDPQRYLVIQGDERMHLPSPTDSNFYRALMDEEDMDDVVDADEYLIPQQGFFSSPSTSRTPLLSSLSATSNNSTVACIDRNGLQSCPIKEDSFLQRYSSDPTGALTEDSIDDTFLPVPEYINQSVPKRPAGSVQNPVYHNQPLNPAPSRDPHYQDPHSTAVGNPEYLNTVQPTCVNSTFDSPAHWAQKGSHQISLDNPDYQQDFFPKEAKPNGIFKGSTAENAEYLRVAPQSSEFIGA

Compound	IC50 (EGFR Del19/T790M/C797S; [1]) [nM]	IC50 (EGFR Del19/T790M/C797S; [2]) [nM]	IC50 (EGFR L858R/T790M/C797S; [3]) [nM]	IC50 (EGFR L858R/T790M/C797S; [4]) [nM]	IC50 (EGFR Del19/C797S; [5]) [nM]	IC50 (EGFR Del19/C797S; [6]) [nM]	IC50 (EGFR L858R/C797S; [7]) [nM]	IC50 (EGFR L858R/C797S; [8]) [nM]	IC50 (EGFR wildtype (WT); IC50 WT (nM), 100 μM ATP) [nM]	IC50 (EGFR wildtype (WT); [9]) [nM]
O=S(=O)(C1CC1)N1CCC(C#Cc2cnc(Nc3ccnc(-c4cnn(S(=O)(=O)C5CC5)c4)n3)cc2N[C@H]2CC[C@@H](CO)CC2)CC1 [Example 390, ((1s,4s)-4-((2-((2-(1-(Cyclopropylsulfonyl)-1H-pyrazol-4-yl)pyrimidin-4-yl)amino)-5-((1-(cyclopropylsulfonyl)piperidin-4-yl)ethynyl)pyridin-4-yl)amino)cyclohexyl)methanol]	5.3	2.5	8.3	1.1	11.6	7.3	192	30.1	> 10000	47.7
O=S(=O)(C1CC1)N1CCC(C#Cc2cnc(Nc3ccnc(-c4cnn(S(=O)(=O)C5CC5)c4)n3)cc2N[C@H]2CC[C@@H](O)CC2)CC1 [Example 391, (1s,4s)-4-((2-((2-(1-(Cyclopropylsulfonyl)-1H-pyrazol-4-yl)pyrimidin-4-yl)amino)-5-((1-(cyclopropylsulfonyl)piperidin-4-yl)ethynyl)pyridin-4-yl)amino)cyclohexan-1-ol]	1.3	0.6	2.1	0.4	5.1	3	63.4	19.2	> 10000	25.6
O=S(=O)(C1CC1)N1CCC(C#Cc2cnc(Nc3ccnc(-c4cnn(S(=O)(=O)C5CC5)c4)n3)cc2NC[C@H]2CC[C@H](CO)CC2)CC1 [Example 392, ((1r,4r)-4-(((2-((2-(1-(Cyclopropylsulfonyl)-1H-pyrazol-4-yl)pyrimidin-4-yl)amino)-5-((1-(cyclopropylsulfonyl)piperidin-4-yl)ethynyl)pyridin-4-yl)amino)methyl)cyclohexyl)methanol]	22	–	60.1	–	212	–	4300	–	> 10000	–
CS(=O)(=O)N1CCC(C#Cc2cnc(Nc3ccnc(-c4cnn(S(=O)(=O)C5CC5)c4)n3)cc2NCC2CCC(O)CC2)C1 (centres unmarked) [Example 398, (1 r,4r)-4-(((2-((2-(1-(Cyclopropylsulfonyl)-1H-pyrazol-4-yl)pyrimidin-4-yl)amino)-5-((1-(methylsulfonyl)pyrrolidin-3-yl)ethynyl)pyridin-4-yl)amino)methyl)cyclohexan-1-ol]	14.9	26.7	29.3	24.7	44.3	16.6	971	17.8	> 10000	294
CS(=O)(=O)N1CCC(C#Cc2cnc(Nc3ccnc(-c4cnn(S(=O)(=O)C5CC5)c4)n3)cc2NC2CCC(O)CC2)C1 (centres unmarked) [Example 399, (1s,4s)-4-((2-((2-(1-(Cyclopropylsulfonyl)-1H-pyrazol-4-yl)pyrimidin-4-yl)amino)-5-((1-(methylsulfonyl)pyrrolidin-3-yl)ethynyl)pyridin-4-yl)amino)cyclohexan-1-ol]	5.7	1.3	1.2	0.8	1.4	0.6	28.2	1.6	> 10000	10.2
CS(=O)(=O)N1CCC(C#Cc2cnc(Nc3ccnc(-c4cnn(S(=O)(=O)C5CC5)c4)n3)cc2NCC2CCC(CO)CC2)C1 (centres unmarked) [Example 400, ((1r,4r)-4-(((2-((2-(1-(Cyclopropylsulfonyl)-1H-pyrazol-4-yl)pyrimidin-4-yl)amino)-5-((1-(methylsulfonyl)pyrrolidin-3-yl)ethynyl)pyridin-4-yl)amino)methyl)cyclohexyl)methanol]	19.3	34	22.5	26.1	35.6	12.8	1570	17.9	> 10000	310
CC1(C#Cc2cnc(Nc3ccnc(-c4cnn(S(=O)(=O)C5CC5)c4)n3)cc2N[C@H]2CC[C@@H](CO)CC2)CC1 [Example 402, ((1s,4s)-4-((2-((2-(1-(Cyclopropylsulfonyl)-1H-pyrazol-4-yl)pyrimidin-4-yl)amino)-5-((1-methylcyclopropyl)ethynyl)pyridin-4-yl)amino)cyclohexyl)methanol]	2.6	–	3.9	–	8.4	7.9	104	3.9	> 10000	62.7
CC1(C#Cc2cnc(Nc3ccnc(-c4cnn(S(=O)(=O)C5CC5)c4)n3)cc2NC[C@H]2CC[C@H](O)CC2)CC1 [Example 403, (1r,4r)-4-(((2-((2-(1-(Cyclopropylsulfonyl)-1H-pyrazol-4-yl)pyrimidin-4-yl)amino)-5-((1-methylcyclopropyl)ethynyl)pyridin-4-yl)amino)methyl)cyclohexan-1-ol]	16.2	–	50.3	–	140	–	1920	–	> 10000	–

Stronger by IC50 (EGFR Del19/T790M/C797S; [1]), values ahead:

IC50 (EGFR Del19/T790M/C797S; [1]) [nM]	IC50 (EGFR Del19/T790M/C797S; [2]) [nM]	IC50 (EGFR L858R/T790M/C797S; [3]) [nM]	IC50 (EGFR L858R/T790M/C797S; [4]) [nM]	IC50 (EGFR Del19/C797S; [5]) [nM]	IC50 (EGFR Del19/C797S; [6]) [nM]	IC50 (EGFR L858R/C797S; [7]) [nM]	IC50 (EGFR L858R/C797S; [8]) [nM]	IC50 (EGFR wildtype (WT); IC50 WT (nM), 100 μM ATP) [nM]	IC50 (EGFR wildtype (WT); [9]) [nM]	Compound
0.9	1.5	1.3	0.5	1.5	0.7	31.3	1.5	> 10000	16.9	CS(=O)(=O)N1CCC(C#Cc2cnc(Nc3ccnc(-c4cnn(S(=O)(=O)C5CC5)c4)n3)cc2NC2CCC(CO)CC2)C1 (centres unmarked) [Example 397, ((1s,4s)-4-((2-((2-(1-(Cyclopropylsulfonyl)-1H-pyrazol-4-yl)pyrimidin-4-yl)amino)-5-((1-(methylsulfonyl)pyrrolidin-3-yl)ethynyl)pyridin-4-yl)amino)cyclohexyl)methanol]
0.7	0.6	1.3	0.3	8.3	6.6	51.2	2.7	9220	16.9	CC1(CO)CCN(c2cc(Nc3ccnc(-c4cnn(S(=O)(=O)C5CC5)c4)n3)ncc2C#CC2CCN(S(=O)(=O)C3CC3)C2)CC1 (centres unmarked) [Example 395, (1-(2-((2-(1-(Cyclopropylsulfonyl)-1H-pyrazol-4-yl)pyrimidin-4-yl)amino)-5-((1-(cyclopropylsulfonyl)pyrrolidin-3-yl)ethynyl)pyridin-4-yl)-4-methylpiperidin-4-yl)methanol]
0.6	0.5	1.2	0.4	7.9	7.3	50	3.4	> 10000	21.3	O=S(=O)(C1CC1)N1CCC(C#Cc2cnc(Nc3ccnc(-c4cnn(S(=O)(=O)C5CC5)c4)n3)cc2NC2CCC(CO)CC2)C1 (centres unmarked) [Example 393, ((1s,4s)-4-((2-((2-(1-(Cyclopropylsulfonyl)-1H-pyrazol-4-yl)pyrimidin-4-yl)amino)-5-((1-(cyclopropylsulfonyl)pyrrolidin-3-yl)ethynyl)pyridin-4-yl)amino)cyclohexyl)methanol]
0.6	0.5	1.5	0.2	12.3	7.5	52.5	4.3	> 10000	15.7	O=S(=O)(C1CC1)N1CCC(C#Cc2cnc(Nc3ccnc(-c4cnn(S(=O)(=O)C5CC5)c4)n3)cc2NC2CCC(O)CC2)C1 (centres unmarked) [Example 394, (1s,4s)-4-((2-((2-(1-(Cyclopropylsulfonyl)-1H-pyrazol-4-yl)pyrimidin-4-yl)amino)-5-((1-(cyclopropylsulfonyl)pyrrolidin-3-yl)ethynyl)pyridin-4-yl)amino)cyclohexan-1-ol]
0.5	1	0.7	0.1	1	0.5	12.2	0.6	3390	6.5	CN(C)CCC1CCCN(c2cc(Nc3ccnc(-c4cnn(S(=O)(=O)C5CC5)c4)n3)ncc2C#Cc2cnn(C)c2)C1 (centres unmarked) [Example 396, 2-(1-(Cyclopropylsulfonyl)-1H-pyrazol-4-yl)-N-(4-(3-(2-(dimethylamino)ethyl)piperidin-1-yl)-5-((1-methyl-1H-pyrazol-4-yl)ethynyl)pyridin-2-yl)pyrimidin-4-amine]
0.4	0.7	0.5	0.4	0.6	0.3	11.9	0.8	3010	3.9	CC1(CO)CCN(c2cc(Nc3ccnc(-c4cnn(S(=O)(=O)C5CC5)c4)n3)ncc2C#CC2CCN(S(C)(=O)=O)C2)CC1 (centres unmarked) [Example 401, (1-(2-((2-(1-(Cyclopropylsulfonyl)-1H-pyrazol-4-yl)pyrimidin-4-yl)amino)-5-((1-(methylsulfonyl)pyrrolidin-3-yl)ethynyl)pyridin-4-yl)-4-methylpiperidin-4-yl)methanol]
